Data as given in publication PMC3808535, “Pannexin1 Channel Proteins in the Zebrafish Retina Have Shared and Unique Properties” (PLoS ONE, 2013).
Where a chain is given by its changes, count along the chain named. Each block holds one compound with its values, some of them ahead of it.

Tests used:
Assay in all cases: ethidium dye uptake in transfected N2a cells
Assay type in all cases: cell-based
mPanx1 [1] = target: T1, mPanx1 (Mus musculus, UniProt Q9JIP4); settings: 20 uM EtBr, 5 min, pH 7.4; channel permeant dye
T1 construct: gene Panx1; full length aa 1-426, C-terminal EYFP fusion (pEYFP-N1), transient in mouse N2a cells
T1 sequence (Q9JIP4 whole entry, the tested form may be a part): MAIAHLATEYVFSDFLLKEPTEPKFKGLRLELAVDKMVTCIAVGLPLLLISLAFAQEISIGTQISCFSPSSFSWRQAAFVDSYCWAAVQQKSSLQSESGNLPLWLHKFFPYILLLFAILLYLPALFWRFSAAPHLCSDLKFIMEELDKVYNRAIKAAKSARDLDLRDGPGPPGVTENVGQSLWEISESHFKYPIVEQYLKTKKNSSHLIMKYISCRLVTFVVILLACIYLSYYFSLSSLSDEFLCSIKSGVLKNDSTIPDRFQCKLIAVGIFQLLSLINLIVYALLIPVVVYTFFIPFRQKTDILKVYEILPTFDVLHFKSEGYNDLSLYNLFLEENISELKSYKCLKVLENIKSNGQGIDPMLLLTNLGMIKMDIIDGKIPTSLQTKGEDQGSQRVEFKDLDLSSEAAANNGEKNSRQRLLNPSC

drPanx1b [2] = target: T2, drPanx1b (Danio rerio, UniProt F1QSR7, R75E/H238Y); settings: 100 uM BBG, 20 uM EtBr, 5 min, pH 7.4; endogenous Panx1 and P2X7-R in N2a host
T2 construct: gene panx1b; full length aa 1-422, C-terminal EYFP fusion (pEYFP-N1), transient in mouse N2a cells
T2 sequence (F1QSR7 1-422 R75E/H238Y): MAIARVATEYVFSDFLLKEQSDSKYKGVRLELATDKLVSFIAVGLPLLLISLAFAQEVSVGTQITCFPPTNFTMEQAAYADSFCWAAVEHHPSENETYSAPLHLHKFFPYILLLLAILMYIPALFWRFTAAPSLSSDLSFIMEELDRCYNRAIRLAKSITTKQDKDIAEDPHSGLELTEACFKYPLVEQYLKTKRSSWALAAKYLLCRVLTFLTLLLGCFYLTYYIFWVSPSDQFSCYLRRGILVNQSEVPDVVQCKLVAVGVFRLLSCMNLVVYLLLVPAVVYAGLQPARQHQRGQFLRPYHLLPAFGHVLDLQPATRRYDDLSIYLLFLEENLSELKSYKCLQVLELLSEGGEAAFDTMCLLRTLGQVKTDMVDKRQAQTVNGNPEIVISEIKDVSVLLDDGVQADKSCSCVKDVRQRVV

drPanx1b [3] = target: T3, drPanx1b (Danio rerio, UniProt F1QSR7, H238Y)
T3 construct: gene panx1b; full length aa 1-422, C-terminal EYFP fusion (pEYFP-N1), transient in mouse N2a cells
T3 sequence (F1QSR7 1-422 H238Y): T2 sequence (F1QSR7 1-422 R75E/H238Y) with E75R

drPanx1a [4] = target: T4, drPanx1a (Danio rerio, UniProt A0A8M1PG01)
T4 construct: gene panx1a; full length aa 1-417 (natural Cys at position 76), C-terminal EYFP fusion (pEYFP-N1), transient in mouse N2a cells
T4 sequence (A0A8M1PG01 1-417): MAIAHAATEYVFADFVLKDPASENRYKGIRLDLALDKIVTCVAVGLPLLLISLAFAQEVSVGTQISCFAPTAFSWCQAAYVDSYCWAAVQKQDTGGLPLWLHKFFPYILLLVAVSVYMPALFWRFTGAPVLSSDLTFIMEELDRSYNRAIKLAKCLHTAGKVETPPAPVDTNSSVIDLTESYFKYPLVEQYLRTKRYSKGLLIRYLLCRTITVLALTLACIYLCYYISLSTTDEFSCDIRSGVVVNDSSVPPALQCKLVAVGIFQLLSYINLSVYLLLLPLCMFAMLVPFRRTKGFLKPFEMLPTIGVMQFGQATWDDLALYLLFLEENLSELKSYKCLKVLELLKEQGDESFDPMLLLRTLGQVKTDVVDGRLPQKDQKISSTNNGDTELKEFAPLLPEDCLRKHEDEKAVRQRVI

mPanx1 [5] = target: T1, mPanx1; settings: read-out: % inhibition at 100 uM
drPanx1a [6] = target: T5, drPanx1a (Danio rerio, UniProt A0A8M1PG01, C76A); settings: 100 uM BBG, 20 uM EtBr, 5 min, pH 7.4; endogenous Panx1 and P2X7-R in N2a host
T5 construct: gene panx1a; full length aa 1-417 (natural Cys at position 76), C-terminal EYFP fusion (pEYFP-N1), transient in mouse N2a cells
T5 sequence (A0A8M1PG01 1-417 C76A): T4 sequence (A0A8M1PG01 1-417) with C76A

drPanx1a [7] = target: T6, drPanx1a (Danio rerio, UniProt A0A8M1PG01, C76K); settings: 100 uM BBG, 20 uM EtBr, 5 min, pH 7.4; endogenous Panx1 and P2X7-R in N2a host
T6 construct: gene panx1a; full length aa 1-417 (natural Cys at position 76), C-terminal EYFP fusion (pEYFP-N1), transient in mouse N2a cells
T6 sequence (A0A8M1PG01 1-417 C76K): T4 sequence (A0A8M1PG01 1-417) with C76K

drPanx1b [8] = target: T7, drPanx1b (Danio rerio, UniProt F1QSR7, R75K/H238Y); settings: 100 uM BBG, 20 uM EtBr, 5 min, pH 7.4; endogenous Panx1 and P2X7-R in N2a host
T7 construct: gene panx1b; full length aa 1-422, C-terminal EYFP fusion (pEYFP-N1), transient in mouse N2a cells
T7 sequence (F1QSR7 1-422 R75K/H238Y): T2 sequence (F1QSR7 1-422 R75E/H238Y) with E75K

drPanx1b [9] = target: T8, drPanx1b (Danio rerio, UniProt F1QSR7, R75A/H238Y); settings: 100 uM BBG, 20 uM EtBr, 5 min, pH 7.4; endogenous Panx1 and P2X7-R in N2a host
T8 construct: gene panx1b; full length aa 1-422, C-terminal EYFP fusion (pEYFP-N1), transient in mouse N2a cells
T8 sequence (F1QSR7 1-422 R75A/H238Y): T2 sequence (F1QSR7 1-422 R75E/H238Y) with E75A

drPanx1b [10] = target: T9, drPanx1b (Danio rerio, UniProt F1QSR7, R75C/H238Y); settings: 100 uM BBG, 20 uM EtBr, 5 min, pH 7.4; endogenous Panx1 and P2X7-R in N2a host
T9 construct: gene panx1b; full length aa 1-422, C-terminal EYFP fusion (pEYFP-N1), transient in mouse N2a cells
T9 sequence (F1QSR7 1-422 R75C/H238Y): T2 sequence (F1QSR7 1-422 R75E/H238Y) with E75C

drPanx1a [11] = target: T10, drPanx1a (Danio rerio, UniProt A0A8M1PG01, C76R); settings: 100 uM BBG, 20 uM EtBr, 5 min, pH 7.4; endogenous Panx1 and P2X7-R in N2a host
T10 construct: gene panx1a; full length aa 1-417 (natural Cys at position 76), C-terminal EYFP fusion (pEYFP-N1), transient in mouse N2a cells
T10 sequence (A0A8M1PG01 1-417 C76R): T4 sequence (A0A8M1PG01 1-417) with C76R

drPanx1a [12] = target: T11, drPanx1a (Danio rerio, UniProt A0A8M1PG01, C76E); settings: 100 uM BBG, 20 uM EtBr, 5 min, pH 7.4; endogenous Panx1 and P2X7-R in N2a host
T11 construct: gene panx1a; full length aa 1-417 (natural Cys at position 76), C-terminal EYFP fusion (pEYFP-N1), transient in mouse N2a cells
T11 sequence (A0A8M1PG01 1-417 C76E): T4 sequence (A0A8M1PG01 1-417) with C76E

drPanx1a [13] = target: T11, drPanx1a; settings: 3 mM ATP, 20 uM EtBr, 5 min, pH 7.4; endogenous Panx1 and P2X7-R in N2a host
drPanx1b [14] = target: T8, drPanx1b; settings: 500 uM ATP, 20 uM EtBr, 5 min, pH 7.4; endogenous Panx1 and P2X7-R in N2a host

SMILES: CC[n+]1c(-c2ccccc2)c2cc(N)ccc2c2ccc(N)cc21 [Ethidium bromide]
ethidium dye uptake in transfected N2a cells (mPanx1 [1]): EtBr uptake was significantly increased in mPanx1

% inhibition at 100 uM (drPanx1b [2]): drPanx1b WT > R75C > R75K ≥ R75A ≥ R75E
inhibition at 100 µM (drPanx1b [3]): 64.1 ± 1%
inhibition at 100 µM (drPanx1a [4]): 33.4 ± 1.7%
inhibition at 100 µM (mPanx1 [5]): 40.6 ± 1.4%
% inhibition at 100 uM (drPanx1a [7]): BBG: drPanx1a-C76R > C76K > WT
% inhibition at 100 uM (drPanx1b [8]): drPanx1b WT > R75C > R75K ≥ R75A ≥ R75E
% inhibition at 100 uM (drPanx1b [9]): drPanx1b WT > R75C > R75K ≥ R75A ≥ R75E
% inhibition at 100 uM (drPanx1b [10]): drPanx1b WT > R75C > R75K ≥ R75A ≥ R75E
% inhibition at 100 uM (drPanx1a [11]): BBG: drPanx1a-C76R > C76K > WT
SMILES: CCOc1ccc(Nc2ccc(C(=C3C=CC(=[N+](CC)Cc4cccc(S(=O)(=O)[O-])c4)C=C3C)c3ccc(N(CC)Cc4cccc(S(=O)(=O)O)c4)cc3C)cc2)cc1 [brilliant blue G]
% inhibition at 100 uM (drPanx1a [6]): BBG: drPanx1a-C76R > C76K > WT ≥ C76A > C76E
% inhibition at 100 uM (drPanx1a [12]): BBG: drPanx1a-C76R > C76K > WT ≥ C76A > C76E

% inhibition at 3 mM (drPanx1a [13]): ATP: drPanx1a-C76E > C76A ≥ WT
inhibition at 500 µM (drPanx1b [3]): 27.3 ± 1.9%
inhibition at 3000 µM (drPanx1a [4]; read-out: % inhibition at 3 mM): 20.2 ± 2.2%
% inhibition at 500 uM (drPanx1b [14]): drPanx1b WT ≥ R75K ≥ R75C > R75E ≥ R75A
SMILES: Nc1ncnc2c1ncn2[C@@H]1O[C@H](COP(=O)(O)OP(=O)(O)OP(=O)(O)O)[C@@H](O)[C@H]1O [ATP]
